Experimental data reported in ChEMBL document CHEMBL1135193, “N-[2-(Indan-1-yl)-3-mercapto-propionyl] amino acids as highly potent inhibitors of the three vasopeptidases (NEP, ACE, ECE): In vitro and In vivo activities” (Bioorg Med Chem Lett, 2002).

Target: T1, Angiotensin-converting enzyme (Rattus norvegicus, UniProt P47820)
T1 sequence (P47820 whole entry): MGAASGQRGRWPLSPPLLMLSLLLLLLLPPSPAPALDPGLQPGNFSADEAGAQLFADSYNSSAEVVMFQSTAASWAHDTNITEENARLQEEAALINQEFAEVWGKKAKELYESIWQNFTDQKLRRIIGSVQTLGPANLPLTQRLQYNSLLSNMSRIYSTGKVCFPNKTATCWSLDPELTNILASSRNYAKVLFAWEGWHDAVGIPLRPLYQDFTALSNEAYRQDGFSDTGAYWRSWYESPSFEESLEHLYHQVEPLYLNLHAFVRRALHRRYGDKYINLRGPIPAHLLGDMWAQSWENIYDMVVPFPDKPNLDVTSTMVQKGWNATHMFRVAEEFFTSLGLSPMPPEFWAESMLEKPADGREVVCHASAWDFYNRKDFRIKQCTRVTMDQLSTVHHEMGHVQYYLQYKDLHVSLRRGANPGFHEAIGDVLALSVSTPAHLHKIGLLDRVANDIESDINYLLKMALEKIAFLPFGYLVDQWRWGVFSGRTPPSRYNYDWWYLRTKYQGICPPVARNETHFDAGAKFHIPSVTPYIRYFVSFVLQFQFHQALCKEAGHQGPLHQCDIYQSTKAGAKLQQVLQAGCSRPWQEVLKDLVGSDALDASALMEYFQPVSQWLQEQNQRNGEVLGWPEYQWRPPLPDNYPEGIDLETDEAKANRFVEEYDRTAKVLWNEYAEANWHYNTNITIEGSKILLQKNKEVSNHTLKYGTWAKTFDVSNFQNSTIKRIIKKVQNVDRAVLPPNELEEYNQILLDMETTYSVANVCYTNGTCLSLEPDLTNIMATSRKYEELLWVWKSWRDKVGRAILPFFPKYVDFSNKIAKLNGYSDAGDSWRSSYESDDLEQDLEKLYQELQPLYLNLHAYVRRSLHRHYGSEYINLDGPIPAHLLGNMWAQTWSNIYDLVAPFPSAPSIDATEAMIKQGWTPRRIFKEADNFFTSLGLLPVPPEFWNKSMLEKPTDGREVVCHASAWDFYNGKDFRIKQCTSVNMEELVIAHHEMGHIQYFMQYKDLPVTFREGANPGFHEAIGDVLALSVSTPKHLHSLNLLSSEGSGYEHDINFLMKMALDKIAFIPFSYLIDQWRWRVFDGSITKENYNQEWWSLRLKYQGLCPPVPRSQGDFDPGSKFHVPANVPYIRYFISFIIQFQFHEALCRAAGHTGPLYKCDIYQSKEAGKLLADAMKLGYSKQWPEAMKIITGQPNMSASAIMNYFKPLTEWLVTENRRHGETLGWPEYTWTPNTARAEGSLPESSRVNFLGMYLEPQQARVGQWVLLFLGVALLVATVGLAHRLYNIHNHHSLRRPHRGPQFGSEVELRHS
Experiment: In vitro inhibition of Angiotensin I converting enzyme.

SMILES	Ki
COc1ccc2c(c1)CC[C@H]2[C@H](CS)C(=O)N[C@@H](Cc1c[nH]c2ccccc12)C(=O)O	0.07 µM
O=C(O)[C@H](Cc1c[nH]c2ccccc12)NC(=O)[C@H](CS)[C@@H]1CCc2cc(Br)ccc21	0.066 µM
COc1cccc2c1CCC2C(CS)C(=O)NC(Cc1c[nH]c2ccccc12)C(=O)O (stereo not given)	0.008 µM
O=C(O)[C@H](Cc1c[nH]c2ccccc12)NC(=O)[C@H](CS)[C@H]1CCc2cc(Br)ccc21	0.055 µM
O=C(O)C(Cc1c[nH]c2ccccc12)NC(=O)C(CS)C1CCc2cc(Br)ccc21 (stereo not given)	0.012 µM
O=C(O)C(Cc1c[nH]c2ccccc12)NC(=O)C(CS)C1CCc2cc(O)ccc21 (stereo not given)	0.007 µM
COc1ccc2c(c1)CC[C@@H]2[C@H](CS)C(=O)N[C@@H](Cc1c[nH]c2ccccc12)C(=O)O	0.0046 µM
N#Cc1ccc2c(c1)CCC2C(CS)C(=O)NC(Cc1c[nH]c2ccccc12)C(=O)O (stereo not given)	0.003 µM
CSc1ccc2c(c1)CCC2C(CS)C(=O)NC(Cc1c[nH]c2ccccc12)C(=O)O (stereo not given)	0.014 µM
COc1ccc2c(c1)CC[C@@H]2[C@@H](CS)C(=O)N[C@@H](Cc1c[nH]c2ccccc12)C(=O)O	0.024 µM

Target: T2, Neprilysin (Oryctolagus cuniculus, UniProt P08049)
T2 sequence (P08049 whole entry): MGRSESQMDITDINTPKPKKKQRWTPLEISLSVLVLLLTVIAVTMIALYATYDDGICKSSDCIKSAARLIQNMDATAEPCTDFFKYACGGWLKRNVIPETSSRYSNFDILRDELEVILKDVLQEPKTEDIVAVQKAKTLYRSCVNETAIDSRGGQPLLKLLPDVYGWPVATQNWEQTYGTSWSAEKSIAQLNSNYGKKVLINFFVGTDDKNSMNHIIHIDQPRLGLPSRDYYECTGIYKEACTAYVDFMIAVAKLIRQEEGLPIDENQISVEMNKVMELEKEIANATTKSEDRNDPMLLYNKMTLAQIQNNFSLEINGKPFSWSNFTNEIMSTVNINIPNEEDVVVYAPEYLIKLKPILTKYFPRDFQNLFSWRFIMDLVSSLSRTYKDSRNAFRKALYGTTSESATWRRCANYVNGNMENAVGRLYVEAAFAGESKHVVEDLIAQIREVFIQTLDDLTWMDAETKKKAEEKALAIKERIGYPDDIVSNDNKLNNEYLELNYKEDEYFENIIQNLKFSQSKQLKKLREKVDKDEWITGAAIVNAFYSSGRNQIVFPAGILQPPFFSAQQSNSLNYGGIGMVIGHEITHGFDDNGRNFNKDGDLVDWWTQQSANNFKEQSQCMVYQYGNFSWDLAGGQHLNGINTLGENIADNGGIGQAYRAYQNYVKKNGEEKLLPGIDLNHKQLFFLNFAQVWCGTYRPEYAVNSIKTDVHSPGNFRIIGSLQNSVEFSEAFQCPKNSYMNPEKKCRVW
Experiment: In vitro inhibition of Neutral endopeptidase.

SMILES	Ki
COc1ccc2c(c1)CC[C@H]2[C@H](CS)C(=O)N[C@@H](Cc1c[nH]c2ccccc12)C(=O)O	0.03 µM
O=C(O)[C@H](Cc1c[nH]c2ccccc12)NC(=O)[C@H](CS)[C@@H]1CCc2cc(Br)ccc21	0.013 µM
COc1cccc2c1CCC2C(CS)C(=O)NC(Cc1c[nH]c2ccccc12)C(=O)O (stereo not given)	0.016 µM
O=C(O)[C@H](Cc1c[nH]c2ccccc12)NC(=O)[C@H](CS)[C@H]1CCc2cc(Br)ccc21	0.0018 µM
O=C(O)C(Cc1c[nH]c2ccccc12)NC(=O)C(CS)C1CCc2cc(Br)ccc21 (stereo not given)	0.005 µM
O=C(O)C(Cc1c[nH]c2ccccc12)NC(=O)C(CS)C1CCc2cc(O)ccc21 (stereo not given)	0.004 µM
COc1ccc2c(c1)CC[C@@H]2[C@H](CS)C(=O)N[C@@H](Cc1c[nH]c2ccccc12)C(=O)O	0.0027 µM
N#Cc1ccc2c(c1)CCC2C(CS)C(=O)NC(Cc1c[nH]c2ccccc12)C(=O)O (stereo not given)	0.011 µM
CSc1ccc2c(c1)CCC2C(CS)C(=O)NC(Cc1c[nH]c2ccccc12)C(=O)O (stereo not given)	0.006 µM
COc1ccc2c(c1)CC[C@@H]2[C@@H](CS)C(=O)N[C@@H](Cc1c[nH]c2ccccc12)C(=O)O	0.0013 µM

Target: T3, Endothelin-converting enzyme 1 (Homo sapiens, UniProt P42892)
T3 sequence (P42892 whole entry): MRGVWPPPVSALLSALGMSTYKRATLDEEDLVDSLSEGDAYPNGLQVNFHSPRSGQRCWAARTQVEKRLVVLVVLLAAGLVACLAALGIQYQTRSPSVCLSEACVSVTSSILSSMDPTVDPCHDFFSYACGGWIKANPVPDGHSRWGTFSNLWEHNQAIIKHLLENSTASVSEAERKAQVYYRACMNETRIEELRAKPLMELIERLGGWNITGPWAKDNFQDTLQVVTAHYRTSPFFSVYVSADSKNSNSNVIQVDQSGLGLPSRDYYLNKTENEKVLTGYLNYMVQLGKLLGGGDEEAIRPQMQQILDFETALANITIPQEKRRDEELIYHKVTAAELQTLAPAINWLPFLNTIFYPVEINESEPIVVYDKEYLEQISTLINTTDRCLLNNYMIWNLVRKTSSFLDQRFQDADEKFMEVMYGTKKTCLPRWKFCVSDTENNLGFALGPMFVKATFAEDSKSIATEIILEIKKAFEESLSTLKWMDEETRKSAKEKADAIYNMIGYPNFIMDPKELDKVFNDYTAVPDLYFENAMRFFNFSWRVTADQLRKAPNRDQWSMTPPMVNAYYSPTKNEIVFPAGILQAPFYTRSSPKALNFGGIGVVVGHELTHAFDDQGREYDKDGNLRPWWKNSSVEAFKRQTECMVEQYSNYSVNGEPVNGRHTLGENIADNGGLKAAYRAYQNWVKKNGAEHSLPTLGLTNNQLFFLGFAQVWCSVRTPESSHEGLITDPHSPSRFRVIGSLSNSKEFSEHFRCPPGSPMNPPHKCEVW
Experiment: In vitro inhibition of endothelin converting enzyme.

SMILES	Ki
COc1ccc2c(c1)CC[C@H]2[C@H](CS)C(=O)N[C@@H](Cc1c[nH]c2ccccc12)C(=O)O	1.46 µM
O=C(O)[C@H](Cc1c[nH]c2ccccc12)NC(=O)[C@H](CS)[C@@H]1CCc2cc(Br)ccc21	0.09 µM
COc1cccc2c1CCC2C(CS)C(=O)NC(Cc1c[nH]c2ccccc12)C(=O)O (stereo not given)	0.76 µM
O=C(O)[C@H](Cc1c[nH]c2ccccc12)NC(=O)[C@H](CS)[C@H]1CCc2cc(Br)ccc21	0.018 µM
O=C(O)C(Cc1c[nH]c2ccccc12)NC(=O)C(CS)C1CCc2cc(Br)ccc21 (stereo not given)	0.031 µM
O=C(O)C(Cc1c[nH]c2ccccc12)NC(=O)C(CS)C1CCc2cc(O)ccc21 (stereo not given)	0.09 µM
COc1ccc2c(c1)CC[C@@H]2[C@H](CS)C(=O)N[C@@H](Cc1c[nH]c2ccccc12)C(=O)O	0.1 µM
N#Cc1ccc2c(c1)CCC2C(CS)C(=O)NC(Cc1c[nH]c2ccccc12)C(=O)O (stereo not given)	0.21 µM
CSc1ccc2c(c1)CCC2C(CS)C(=O)NC(Cc1c[nH]c2ccccc12)C(=O)O (stereo not given)	0.035 µM
COc1ccc2c(c1)CC[C@@H]2[C@@H](CS)C(=O)N[C@@H](Cc1c[nH]c2ccccc12)C(=O)O	0.01 µM
